Reference: patent US20250368648A1, “MULTI-CYCLIC IRAK AND FLT3 INHIBITING COMPOUNDS AND USES THEREOF” (CHILDREN'S HOSPITAL MEDICAL CENTER, priority 2022, published 2025)
Like-named read-outs stand apart in the source and are kept apart here.

Tests used:
[1] = molecular target: T1, IRAK1 (Homo sapiens, UniProt P51617); assay: RBC HotSpot Kinase Assay, IRAK1; assay type: biochemical; conditions: HotSpot functional assay, isolated kinase enzyme, 33P-ATP
T1 construct: purchased RBC (Reaction Biology) HotSpot assay
T1 sequence (P51617 whole entry): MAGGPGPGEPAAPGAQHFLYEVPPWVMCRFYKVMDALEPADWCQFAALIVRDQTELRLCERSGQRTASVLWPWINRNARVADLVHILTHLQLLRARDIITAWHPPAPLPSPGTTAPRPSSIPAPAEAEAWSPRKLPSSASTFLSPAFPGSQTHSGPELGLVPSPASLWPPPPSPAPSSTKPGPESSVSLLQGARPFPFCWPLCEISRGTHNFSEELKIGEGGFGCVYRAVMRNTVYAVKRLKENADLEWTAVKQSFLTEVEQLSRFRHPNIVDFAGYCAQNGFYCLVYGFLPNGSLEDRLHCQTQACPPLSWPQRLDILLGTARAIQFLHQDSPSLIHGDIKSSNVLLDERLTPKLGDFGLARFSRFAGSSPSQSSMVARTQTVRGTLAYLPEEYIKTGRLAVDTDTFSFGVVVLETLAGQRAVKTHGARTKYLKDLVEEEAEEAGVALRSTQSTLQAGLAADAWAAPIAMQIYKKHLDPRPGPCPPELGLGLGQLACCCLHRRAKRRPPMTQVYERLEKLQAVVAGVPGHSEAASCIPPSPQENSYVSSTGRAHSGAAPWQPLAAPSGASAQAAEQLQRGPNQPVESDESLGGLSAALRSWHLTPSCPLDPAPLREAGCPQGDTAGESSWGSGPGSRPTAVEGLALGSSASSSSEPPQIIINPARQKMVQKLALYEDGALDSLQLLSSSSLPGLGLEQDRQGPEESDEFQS
In short: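 Isolated kinases, possibly truncated or lacking regulatory receptor regions, were preincubated with compound for 20 min at room temp in 20 mM Hepes pH 7.5, 10 mM MgCl2, 1 mM EGTA, 2 mM DTT, 1% DMSO. Reactions were started with ^33P-ATP and run 2 h at room temperature; activity was read by P81 filter binding.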

[2] = tested on: NF-κB; assay: NF-kB assay in THP-1-Blue NF-κB cells (SEAP reporter); assay type: cell-based
Description: THP-1-Blue NF-κB cells (InvivoGen) carrying a stable integrated NF-κB-inducible secreted embryonic alkaline phosphatase (SEAP) reporter construct were plated at a concentration of 1×10^5 cells per well. The cells were stimulated with Pam3CSK4 (1 ng/mL) or hIL1B (Ing/mL). After 10-20 minutes, the cells were then treated with vehicle (DMSO) or serial dilutions of the test compounds (10 doses tested for each test compound, with a 1:10 dilution series starting at 1 μM or 3 μM) with a final volume of 200 μL for 24 hours at 37° C. After 24 hours, the cells were centrifuged and 20 IL supernatant was incubated with 180 μL QUANTI-Blue reagent at 37° C. for 30-60 minutes. The levels of NF-κB-induced was measured in a microplate reader at 620 nm.

[3] = tested on: MOLM14 D835Y cells; assay: MOLM14 D835Y cell viability assay (Cell Titer Glo); assay type: cell-based
[4] = THP-1-Blue NF-κB cells stimulated with Pam3CSK4, 24 hours, read-out: NF-κB Pam3SCK4 IC50
[5] = THP-1-Blue NF-κB cells stimulated with hIL1B, 24 hours, read-out: NF-κB IL1B IC50

| SMILES | IC50 [1] [nM] | IC50 [2, 4] [nM] | IC50 [2, 5] [nM] | IC50 ([3]; 48 hours) [nM] | IC50 ([3]; Homo sapiens, MOLM-14, 48 h) [nM] |
| --- | --- | --- | --- | --- | --- |
| COc1cc2ncc(-c3nc(N[C@H]4CNCC[C@@H]4F)c(F)cc3F)n2nc1C(C)(O)C(F)(F)F (single isomer, unassigned) [Compound 77a] | 362 | 166 | 254 | 8 | – |
| COc1cc2ncc(-c3nc(N[C@H]4CNC[C@@H]4F)c(F)cc3F)n2nc1C(C)(O)C(F)(F)F (single isomer, unassigned) [Compound 80a] | 1550 | – | – | 23 | – |
| COc1cc2ncc(-c3nc(N[C@@H]4CCCNC4)c(F)cc3F)n2nc1C(C)(O)C(F)(F)F (single isomer, unassigned) [Compound 81a] | 589 | – | – | 6 | – |
| COc1cc2ncc(-c3nc(N[C@H]4CNCC[C@@H]4F)c(F)cc3F)n2nc1C1CC2(CCC2)C1 [Compound 10a, 3,5-difluoro-N-((3S,4S)-4-fluoropiperidin-3-yl)-6-(7-methoxy-6-(spiro[3.3]heptan-2-yl)imidazo[1,2-b]pyridazin-3-yl)pyridin-2-amine] | 72 | – | – | – | – |
| COc1cc2ncc(-c3nc(N[C@H]4CNC[C@@H]4F)c(F)cc3F)n2nc1C1CC2(CCC2)C1 [Compound 12a, 3,5-difluoro-N-((3S,4S)-4-fluoropyrrolidin-3-yl)-6-(7-methoxy-6-(spiro[3.3]heptan-2-yl)imidazo[1,2-b]pyridazin-3-yl)pyridin-2-amine] | 88 | – | – | – | – |
| COc1cc2ncc(-c3nc(N[C@H]4CNCC[C@@H]4F)c(F)cc3F)n2nc1C1CCC1 [Compound 15a, 6-(6-cyclobutyl-7-methoxyimidazo[1,2-b]pyridazin-3-yl)-3,5-difluoro-N-((3S,4S)-4-fluoropiperidin-3-yl)pyridin-2-amine] | 12 | 108 | 136 | – | 18 |
| COc1cc2ncc(-c3nc(N[C@H]4CNCC[C@@H]4F)c(F)cc3F)n2nc1C12CC(C1)C2 [Compound 67a, 6-(6-(bicyclo[1.1.1]pentan-1-yl)-7-methoxyimidazo[1,2-b]pyridazin-3-yl)-3,5-difluoro-N-((3S,4S)-4-fluoropiperidin-3-yl)pyridin-2-amine] | 9 | 284 | 331 | – | – |
